According to US11045409B2, “Composition comprising a water-insoluble solid organic UV-screening agent and a compound capable of establishing hydrogen bonds” (L'OREAL, priority 2013, dated 2021):

Experiment: Maximum solubility of UV-screening agents in compound (B)/isododecane mixtures
Format: physicochemical
Details: sonication 45° C. 30 minutes, stable two months at room temperature
Description: Solubility Test of the Screening Agents (A) in Mixtures of Compounds (B) and of Isododecane —
300 mg of water-insoluble solid UV-screening agent (A) or of UV-screening agent outside the invention were weighed out in a 10 ml flask, and compound (B) (as a mixture at 50% by weight in isododecane) was then added in increasing amounts until dissolution of the screening agent was complete. The dissolution was performed by sonication at 45° C. for 30 minutes, followed by cooling to room temperature. […] The maximum solubility was given in w/w %, which represents the mass percentage of UV-screening agent in the (B)/isododecane/UV-screening agent mixture. The maximum solubility of the solid screening agent (A) in a solution of isododecane alone (Bo) was also measured as reference.

[1] = in compound (B1) at 50% by weight in isododecane
[2] = in compound (B2) at 50% by weight in isododecane
[3] = in isododecane alone (B0), reference

SMILES	Maximum solubility of the UV-screening agent [1] [w/w %]	Maximum solubility of the UV-screening agent [2] [w/w %]	Maximum solubility of the UV-screening agent [3]
COc1ccc(C(=O)CC(=O)c2ccc(C(C)(C)C)cc2)cc1 [UV-screening agent No. 1, Butylmethoxydibenzoylmethane]	15	15	1 w/w %
Cc1cc(CC(C)C[Si](C)(O[Si](C)(C)C)O[Si](C)(C)C)c(O)c(-n2nc3ccccc3n2)c1 (stereo not drawn) [UV-screening agent No. 2, Drometrizole Trisiloxane]	30	30	5 w/w %

Second part, the compound after the results:

Maximum solubility of the UV-screening agent [1] [w/w %]	Maximum solubility of the UV-screening agent [2] [w/w %]	Maximum solubility of the UV-screening agent [3]	SMILES
5	2.5	insoluble	CCCCCCCCOC(=O)/C(C#N)=C\C=C\N(CCO)CCO [UV-screening agent No. 3]
2.5	5	insoluble	CCCCCCCCOC(=O)/C(C#N)=C\C=C\N(CC)CC [UV-screening agent No. 4]
5	5	1 w/w %	CCCCC(CC)COc1ccc(-c2nc(-c3ccc(OC)cc3)nc(-c3ccc(OCC(CC)CCCC)cc3O)n2)c(O)c1 (stereo not drawn) [UV-screening agent No. 8, 2,4-bis{[4-(2-ethylhexyloxy)-2-hydroxy]phenyl}-6-(4-methoxyphenyl)-1,3,5-triazine]
